Molecular target: T1, Human factor D (Homo sapiens, UniProt P00746)
T1 construct: purified from human serum; purchased Complement Technology, Inc; host or cells: human serum (natural source)
Test: biochemical

T1 sequence (P00746 26-253): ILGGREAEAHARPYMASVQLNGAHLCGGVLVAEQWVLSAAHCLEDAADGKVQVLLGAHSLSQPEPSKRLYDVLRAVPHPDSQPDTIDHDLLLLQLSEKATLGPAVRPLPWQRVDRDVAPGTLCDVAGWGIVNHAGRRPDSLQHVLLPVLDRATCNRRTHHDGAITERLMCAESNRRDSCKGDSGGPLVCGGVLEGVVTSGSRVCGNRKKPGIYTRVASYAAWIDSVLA

CCOP(=O)(OCC)c1ccc2c(C(C)=O)cn(CC(=O)N3[C@@H]4CCC[C@@H]4C[C@H]3C(=O)NCc3cccc(Cl)c3F)c2c1 [Compound 5, diethyl 3-acetyl-1-(2-((2S,3aR,6aR)-2-(3-chloro-2-fluorobenzylcarbamoyl)hexahydrocyclopenta [b]pyrrol-1(2H)-yl)-2-oxoethyl)-1H-indol-6-ylphosphonate]
IC50: 1 to 10 µM
